System: influenza A virus A/Aichi/2/68 (H3N2)
Test: Cytopathic effect (CPE) assay H3N2 in MDCK cells
Format: cell-based, influenza A virus (A/Aichi/2/68 (H3N2)); MDCK cells
Settings: Influenza A virus, H3N2, MDCK, read-out: CPE H3N2 reduction (%)
Protocol: A possible measure of the […] antiviral activity of the compounds having the formula I or II is the CPE assay disclosed herein. […] In this connection, the reduction in the virus-mediated cytopathic effect (CPE) upon treatment with the compounds was calculated as follows: The cell viability of infected-treated and uninfected-treated cells was determined using an ATP-based cell viability assay (Promega). The response in relative luminescent units (RLU) of infected-untreated samples was subtracted from the response (RLU) of the infected-treated samples and then normalized to the viability of the corresponding uninfected sample resulting in % CPE reduction.
The influenza A virus (IAV) was obtained from American Tissue Culture Collection (A/Aichi/2/68 (H3N2); VR-547). Virus stocks were prepared by propagation of virus on Mardin-Darby canine kidney (MDCK; ATCC CCL-34) cells and infectious titres of virus stocks were determined by the 50% tissue culture infective dose (TCID50) analysis as described in Reed, L. J., and H. Muench. 1938, Am. J. Hyg. 27:493-497.
MDCK cells were seeded in 96-well plates at 2×10^4 cells/well using DMEM/Ham's F-12 (1:1) medium containing 10% foetal bovine serum (FBS), 2 mM L-glutamine and 1% antibiotics (all from PAA). Until infection the cells were incubated for 5 hrs at 37° C., 5.0% CO2 to form a -80% confluent monolayer on the bottom of the well. Each test compound was dissolved in DMSO and generally tested at 25 μM and 250 μM. In those cases where the compounds were not soluble at that concentration they were tested at the highest soluble concentration. The compounds were diluted in infection medium (DMEM/Ham's F-12 (1:1) containing 5 μg/ml trypsin, and 1% antibiotics) for a final plate well DMSO concentration of 1%. The virus stock was diluted in infection medium (DMEM/Ham's F-12 (1:1) containing 5 μg/m1Trypsin, 1% DMSO, and 1% antibiotics) to a theoretical multiplicity of infection (M01) of 0.05.
After removal of the culture medium and one washing step with PBS, virus and compound were added together to the cells. In the wells used for cytotoxicity determination (i.e. in the absence of viral infection), no virus suspension was added. Instead, infection medium was added. Each treatment was conducted in two replicates. After incubation at 37° C., 5% CO2 for 48 hrs, each well was observed microscopically for apparent cytotoxicity, precipitate formation, or other notable abnormalities. Then, cell viability was determined using
CellTiter-Glo luminescent cell viability assay (Promega). The supernatant was removed carefully and 65 μl of the reconstituted reagent were added to each well and incubated with gentle shaking for 15 min at room temperature. Then, 60 μl of the solution was transferred to an opaque plate and luminescence (RLU) was measured using Synergy HT plate reader (Biotek).
Relative cell viability values of uninfected-treated versus uninfected-untreated cells were used to evaluate cytotoxicity of the compounds. Substances with a relative viability below 80% at the tested concentration were regarded as cytotoxic and retested at lower concentrations.
Reduction in the virus-mediated cytopathic effect (CPE) upon treatment with the compounds was calculated as follows: The response (RLU) of infected-untreated samples was subtracted from the response (RLU) of the infected-treated samples and then normalized to the viability of the corresponding uninfected sample resulting in % CPE reduction.

SMILES | inhibition at 50 µM
O=C(NO)c1cc(NS(=O)(=O)Cc2cccc(Cl)c2)ccn1 | 60.1%

Same assay, conditions: Influenza A virus, H3N2, MDCK; activity conc 50 (μM); read-out: CPE H3N2 reduction (%)

SMILES | inhibition at 50 µM
O=C(NO)c1cc(NS(=O)(=O)Cc2cc(Cl)cc(Cl)c2)ccn1 | 9.3%
O=C(NO)c1cc(NS(=O)(=O)Cc2cccc(C(F)(F)F)c2)ccn1 | -5.8%
O=C(NO)c1cc(NS(=O)(=O)Cc2ccccc2Cl)ccn1 | -1.5%
O=C(NO)c1cc(NS(=O)(=O)Cc2ccc(Cl)cc2)ccn1 | -3.88%
O=C(NO)c1cc(NS(=O)(=O)Cc2cccc(Br)c2)ccn1 | 2.29%

Same assay, conditions: activity conc 1

SMILES | CPE H3N2 reduction (%)
CCONC(=O)c1cc(NCc2cccc(OCc3ccccc3)c2)ccn1.Cl | 1.2%
O=C(c1cc(-c2ccccc2)ccn1)N(O)Cc1ccc(F)cc1 | −3.2%
O=C(c1cc(C2=CCCCC2)ccn1)N(O)Cc1ccccc1 | 3.4%

Same assay, conditions: activity conc 2

SMILES | CPE H3N2 reduction (%)
O=C(c1cc(N2CCCCC2)ccn1)N(O)CCCc1ccccc1 | 7.7%
CC(C)c1cccc(-c2ccc(C(=O)NO)nc2)c1 | −2.1%
O=C(c1cc2ccccc2cn1)N(O)CCCc1ccccc1 | 4.4%
CC(C)c1cccc(-c2ccc(C(=O)N(O)CCc3ccccc3)nc2)c1 | 2.1%
O=C(c1cc(-c2ccc(Cl)cc2)ccn1)N(O)Cc1ccccc1 | −6.7%
COC1=CC=C(c2ccnc(C(=O)N(O)Cc3ccccc3)c2)CC1 | −2.5%
CC(C)(C)OC(=O)N1C=C(c2ccnc(C(=O)N(O)Cc3ccccc3)c2)CCC1 | 3.9%
CC(C)(C)OC(=O)N1C2C=C(c3ccnc(C(=O)N(O)Cc4ccccc4)c3)CC1CC2 (stereo not drawn) | −5.3%

Same assay, conditions: activity conc 5

SMILES | CPE H3N2 reduction (%)
Cl.O=C(NO)c1cc(N2CCCCC2)ccn1 | −4.1%
O=C(c1ccc(N2CCCC2)cn1)N(Cc1ccccc1)OCc1ccccc1 | −2.7%
O=C(c1cc2ccccc2cn1)N(Cc1ccccc1)OCc1ccccc1 | 1.3%
O=C(NOCc1ccccc1)c1cc2ccccc2cn1 | −1.5%
O=C(c1ccc(N2CCCCC2)cn1)N(O)Cc1ccccc1 | −3.4%
CN(Cc1ccccc1)c1ccnc(C(=O)N(O)Cc2ccccc2)c1 | 3.8%
O=C(NO)c1cc(-c2ccc(Cl)cc2)ccn1 | 26.6%
O=C(c1cc(-c2ccc(Cl)c(Cl)c2)ccn1)N(O)Cc1ccccc1 | 8.1%
NC(=O)c1cccc(-c2ccnc(C(=O)N(O)Cc3ccccc3)c2)c1 | −2.7%
CC(C)(C)OC(=O)N1CC=C(c2ccnc(C(=O)N(O)Cc3ccccc3)c2)CC1 | 1.2%
NC(=O)c1ccc(-c2ccnc(C(=O)N(O)Cc3ccccc3)c2)cc1 | −2.5%
CN(C)S(=O)(=O)c1cccc(-c2ccnc(C(=O)N(O)Cc3ccccc3)c2)c1 | −1.8%
O=C(c1cc(-c2cccc(CO)c2)ccn1)N(O)Cc1ccccc1 | 7.7%
CNC(=O)c1cccc(-c2ccnc(C(=O)N(O)Cc3ccccc3)c2)c1 | −7.5%
CN(c1ccnc(C(=O)NO)c1)S(=O)(=O)Cc1ccccc1 | −1.7%
CC(C)(C)OC(=O)N1CCC=C(c2ccnc(C(=O)N(O)Cc3ccccc3)c2)C1 | 10.2%
O=C(c1cc(N2CCCCC2)cc[n+]1[O-])N(O)Cc1ccccc1 | −1.83%

Same assay, conditions: activity conc 10

SMILES | CPE H3N2 reduction (%)
Cc1cccc(-c2ccc(C(=O)N(O)Cc3ccccc3)nc2)c1 | 15.5%
O=C(c1cc(-c2ccccc2)ccn1)N(O)Cc1ccccc1 | −9.3%

Same assay, conditions: activity conc 12

SMILES | CPE H3N2 reduction (%)
O=C(c1ccc(-c2ccccc2)cn1)N(O)Cc1ccccc1 | 13.4%
O=C(NO)c1ccc(-c2ccccc2)cn1 | 21.7%

Same assay, conditions: activity conc 20

SMILES | CPE H3N2 reduction (%)
CCONC(=O)c1ccc(-c2cccc(CN(C)CCCc3ccccc3)c2)cn1.Cl | 1.6%
O=C(NOCc1ccccc1)c1ccc(N2CCCC2)cn1 | −8.7%
O=C(c1cc2ccccc2cn1)N(O)CCc1ccccc1 | −1.8%
CC(C)(C)OC(=O)N1CCC(c2ccnc(C(=O)N(O)Cc3ccccc3)c2)CC1 | 31.3%
Cl.O=C(NO)c1cc(NS(=O)(=O)Cc2cc(Cl)cc(Cl)c2)ccn1 | 28.9%
Cl.O=C(c1cc(N2CCC(F)(F)C2)ccn1)N(O)Cc1ccccc1 | 4.6%

Same assay, conditions: activity conc 50 (μM)

SMILES | CPE H3N2 reduction (%)
CCONC(=O)c1cc(N2CCOCC2)ccn1.Cl | 1.3%
CCONC(=O)c1cc(N)ccn1.Cl | 10.5%
CCONC(=O)c1ccccn1 | 12.5%
CCONC(=O)c1ccc2ccccc2n1 | −2.2%
O=C(c1cc(NS(=O)(=O)Cc2ccccc2)ccn1)N(O)Cc1ccccc1 | 6.2%
O=C(NO)c1cc(N2CCOCC2)ccn1 | −7.1%
O=C(c1cc(NS(=O)(=O)c2ccccc2)ccn1)N(O)Cc1ccccc1 | −5.2%
C[C@@H]1CN(c2ccnc(C(=O)N(O)Cc3ccccc3)c2)C[C@H](C)O1 | 10.5%
CN(C)C1CCN(c2ccnc(C(=O)N(O)Cc3ccccc3)c2)CC1 | 12.3%
O=C(c1cc(N2CCCC(F)(F)C2)ccn1)N(O)Cc1ccccc1 | 8.9%
CN1CCN(c2ccnc(C(=O)N(O)Cc3ccccc3)c2)CC1 | 2.4%
O=C(c1cc(N2CCC(N3CCCC3)CC2)ccn1)N(O)Cc1ccccc1 | 10.7%
CC(C)(C)OC(=O)NC1CCN(c2ccnc(C(=O)N(O)Cc3ccccc3)c2)CC1 | 8.3%
CN(C)CCNC(=O)c1cccc(-c2ccnc(C(=O)N(O)Cc3ccccc3)c2)c1 | 8.9%
O=C(c1cc(N2CCC(N3CCCCC3)CC2)ccn1)N(O)Cc1ccccc1 | 18.8%
NC1CCN(c2ccnc(C(=O)N(O)Cc3ccccc3)c2)CC1 | 3.2%
O=C(c1cc(N2CCC3(CC2)OCCO3)ccn1)N(O)Cc1ccccc1 | 9.5%
CN(C)C(=O)c1cccc(-c2ccnc(C(=O)N(O)Cc3ccccc3)c2)c1 | 5.3%
CC(C)(C)OC(=O)N1CCN(c2ccnc(C(=O)N(O)Cc3ccccc3)c2)CC1 | 34%

SMILES | CPE H3N2 reduction (%)
CC1(C)C=C(c2ccnc(C(=O)N(O)Cc3ccccc3)c2)CC(C)(C)N1 | 2.8%
Cl.O=C(c1cc(C2CCNCC2)ccn1)N(O)Cc1ccccc1 | −1.4%
Cl.O=C(NO)c1cc(NS(=O)(=O)Cc2ccc(F)cc2)ccn1 | −1.4%
Cl.Cl.O=C(c1cc(N2CCNCC2)ccn1)N(O)Cc1ccccc1 | −4.5%
Cl.O=C(NO)c1cc(NS(=O)(=O)Cc2cccc(F)c2)ccn1 | −2.4%
O=C(c1cc(C2=CCC3(CC2)OCCO3)ccn1)N(O)Cc1ccccc1 | 5.4%
Cl.O=C(c1cc(N2CCC(F)(F)CC2)ccn1)N(O)Cc1ccccc1 | −3.2%
CN1CC=C(c2ccnc(C(=O)N(O)Cc3ccccc3)c2)CC1 | 10.6%
Cl.O=C(c1cc(NS(=O)(=O)Cc2ccc(F)cc2)ccn1)N(O)Cc1ccccc1 | −1.1%
Cl.O=C(c1cc(C2=CCCNC2)ccn1)N(O)Cc1ccccc1 | 9.5%
CN1CCN(c2ccnc(C(=O)N(C)O)c2)CC1 | 2.6%
CN(O)C(=O)c1cc(N2CCOCC2)ccn1 | 5.7%
Cl.O=C(c1cc(NS(=O)(=O)Cc2cccc(F)c2)ccn1)N(O)Cc1ccccc1 | 9.6%
O=C(c1cc(C2CCCNC2)ccn1)N(O)Cc1ccccc1 (stereo not drawn) | 6.1%
Cl.O=C(c1cc(N2CCC(F)CC2)ccn1)N(O)Cc1ccccc1 | 34%
Cl.O=C(c1cc(NS(=O)(=O)Cc2cccc(Cl)c2)ccn1)N(O)Cc1ccccc1 | 9.5%
Cl.O=C(c1cc(NS(=O)(=O)Cc2cccc(C(F)(F)F)c2)ccn1)N(O)Cc1ccccc1 | 22.4%
O=C(NO)c1ccccn1 | 3.15%
